One may read the pIC50 as −log10 of the IC50, conventionally taken in molar units.

Among the data in patent US20240425513A1, “OXAZOLE, OXADIAZOLE, AND INDOLE DERIVATIVES FOR THE INHIBITION OF USP28” (Carmot Therapeutics, Inc., priority 2021, published 2024) are IC50 values, retold here.

Structures are written as SMILES. pIC50: −log10 of the molar value.

In this experiment the target is His6 USP28 (Homo sapiens (Human), UniProt Q96RU2). The experiment is described as follows: Ubiquitin-Rhodamine 110 assay to determine USP28 IC50. The note with it: USP28 150 pM, Ub-Rho110 41 nM, 2 h pre-incubation with enzyme, fluorescence read. The format is biochemical. On the procedure: Example 21. Ubiquitin-Rhodamine 110 Assay to Determine USP28 IC50
Each assay was performed in a final volume of 8 μl in assay buffer containing 10 mM HEPES pH 7.3 ((1 M, pH 7.3 solution, (VWR J848), 100 mM NaCl (5 M, Corning 46-032-CV), 0.01% Triton X-100 (Sigma #T8787), 3.5 mM DTT (1 M, Sigma #43819) and 0.00375% BSA (10%, Calbiochem, #126609)). The assay buffer pH was adjusted to 7.5 using 1 N NaOH (JT Baker, #5000-03). Stock compounds were stored at −80° C. as a 25 mM in DMSO solution along with their respective 20 point 2 fold serial dilutions. For the dose responses, stock compound plates were allowed to come to room temperature the day of the assay. […] of the serial dilution series were pre stamped into assay plates (Black, high base, medium binding, Greiner #782076) for a final top screening concentration of 125 μM (DMSO final concentration=0.5%). Enzyme (His6 USP28, BostonBiochem, #E-570) concentration and incubation times were optimized for the maximal signal to background while maintaining the initial velocity conditions at a fixed substrate concentration. The final concentration of the enzyme in the assay was 150 pM. Final substrate (Ub-Rhol10, Ubiquitin-Rhodamine 110, UBPBio, #M3020) concentration was 41 nM. 2 μl of 4× enzyme was added to assay plates (pre stamped with compound) and incubated for 2 h at room temperature. […] was subsequently added to the assay plates and incubated for 2 h at room temperature. Fluorescence was then read on the Envision (Excitation 485 nm and Emission at 535 nm, Perkin Elmer).

His6 USP28, sequence (Q96RU2 whole entry): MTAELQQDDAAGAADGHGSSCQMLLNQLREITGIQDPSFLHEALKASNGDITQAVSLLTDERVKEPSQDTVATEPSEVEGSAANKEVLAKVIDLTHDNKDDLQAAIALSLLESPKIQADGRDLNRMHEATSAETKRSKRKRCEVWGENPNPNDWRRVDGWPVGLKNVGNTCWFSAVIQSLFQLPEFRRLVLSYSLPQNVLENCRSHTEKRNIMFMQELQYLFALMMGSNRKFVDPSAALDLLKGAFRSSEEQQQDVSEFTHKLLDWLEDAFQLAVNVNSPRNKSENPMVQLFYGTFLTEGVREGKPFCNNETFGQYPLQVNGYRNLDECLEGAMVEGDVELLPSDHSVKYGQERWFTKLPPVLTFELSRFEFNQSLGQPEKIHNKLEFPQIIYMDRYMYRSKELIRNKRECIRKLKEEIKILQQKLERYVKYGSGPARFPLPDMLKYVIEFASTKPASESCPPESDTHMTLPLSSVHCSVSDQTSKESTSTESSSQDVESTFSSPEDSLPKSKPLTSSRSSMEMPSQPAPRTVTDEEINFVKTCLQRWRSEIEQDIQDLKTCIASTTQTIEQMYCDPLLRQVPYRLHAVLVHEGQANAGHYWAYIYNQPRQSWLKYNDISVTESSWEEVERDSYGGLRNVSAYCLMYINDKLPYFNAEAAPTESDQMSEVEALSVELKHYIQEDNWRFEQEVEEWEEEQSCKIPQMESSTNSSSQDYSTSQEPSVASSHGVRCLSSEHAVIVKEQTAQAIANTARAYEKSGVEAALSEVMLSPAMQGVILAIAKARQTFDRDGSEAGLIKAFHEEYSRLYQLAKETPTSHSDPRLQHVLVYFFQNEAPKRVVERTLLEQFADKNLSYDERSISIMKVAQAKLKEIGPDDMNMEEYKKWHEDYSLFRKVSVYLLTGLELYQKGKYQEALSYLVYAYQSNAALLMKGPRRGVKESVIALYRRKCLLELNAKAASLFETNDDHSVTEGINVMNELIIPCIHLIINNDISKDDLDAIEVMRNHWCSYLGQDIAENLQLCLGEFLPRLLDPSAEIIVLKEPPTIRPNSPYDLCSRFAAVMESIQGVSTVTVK

`Cc1oc(Cc2cccc(Cl)c2)nc1-c1ccc(/C=C/C(=O)N[C@H]2CN[C@H](C)C2)cc1` [Compound 15, (E)-3-(4-(2-(3-Chlorobenzyl)-5-methyloxazol-4-yl)phenyl)-N-((3R,5R)-5-methylpyrrolidin-3-yl)acrylamide] gave a negative logarithm of the IC50 (pIC50) of 6.30 to 7.30.

`C[C@@H]1C[C@@H](NC(=O)COc2ccc(-c3nc(Cc4ccc(Cl)cc4)no3)cc2)CN1C#N` [Compound 4, 2-(4-{3-[(4-Chlorophenyl)methyl]-1,2,4-oxadiazol-5-yl}phenoxy)-N-[(3R,5R)-1-cyano-5-methylpyrrolidin-3-yl]acetamide] showed a pIC50 of 6.30 to 7.30.

Compound `CN[C@H]1CCN(C(=O)c2ccc(COc3ccc(-c4nc(Cc5cccc(Cl)c5)oc4C)cc3)nc2)C1` [Compound 35, (3S)-1-{6-[(4-{2-[(3-Chlorophenyl)methyl]-5-methyl-1,3-oxazol-4-yl}phenoxy)methyl]pyridine-3-carbonyl}-N-methylpyrrolidin-3-amine] had a pIC50 above 7.30.

`C[C@@H]1C[C@@H](NC(=O)Cc2ccc(-c3nc(Cc4cccc(Cl)c4)no3)cc2)CN1C#N` [Compound 16, 2-(4-{3-[(3-Chlorophenyl)methyl]-1,2,4-oxadiazol-5-yl}phenyl)-N-[(3R,5R)-1-cyano-5-methylpyrrolidin-3-yl]acetamide] gave a pIC50 below 6.00.

The compound `Cc1oc(Cc2cccc(Cl)c2)nc1-c1ccc(COc2ccc(C(=O)N3CCC(Cc4ncc[nH]4)CC3)cc2)cc1` [Compound 43, (4-((1H-Imidazol-2-yl)methyl)piperidin-1-yl)(4-((4-(2-(3-chlorobenzyl)-5-methyloxazol-4-yl)benzyl)oxy)phenyl)methanone] had a pIC50 above 7.30.

The compound `Cc1oc(Cc2cnn(C)c2)nc1-c1ccc(OCc2ccc(C(=O)N(C)C)cn2)cc1` [Compound 30] showed a pIC50 of 6.30 to 7.30.

Consider `Cc1oc(Cc2cccc(Cl)c2)nc1-c1ccc(OCc2ccc(C(=O)N(C)C)cn2)cc1` [Compound 24, 6-[(4-{2-[(3-Chlorophenyl)methyl]-5-methyl-1,3-oxazol-4-yl}phenoxy)methyl]-N,N-dimethylpyridine-3-carboxamide], for which the negative-log IC50 (pIC50) was above 7.30.

As to `Cc1oc(Cc2cccc(Cl)c2)nc1-c1ccc(COc2ccc(C(=O)N(C)C)cc2)cc1` [Compound 21, 4-((4-(2-(3-Chlorobenzyl)-5-methyloxazol-4-yl)benzyl)oxy)-N,N-dimethylbenzamide], the pIC50 was above 7.30.

Take `C[C@@H]1C[C@@H](NC(=O)/C=C/c2ccc(-c3nc(Cc4cccc(Cl)c4)no3)cc2)CN1C#N` [Compound 5, (E)-3-(4-(3-(3-Chlorobenzyl)-1,2,4-oxadiazol-5-yl)phenyl)-N-((3R,5R)-1-cyano-5-methylpyrrolidin-3-yl)acrylamide]: the negative logarithm of the IC50 (pIC50) was 6.30 to 7.30.

As for `Cc1oc(Cc2cccc(Cl)c2)nc1-c1ccc(OCc2cc(C(=O)N(C)C)n(C)n2)cc1` [Compound 23, 3-((4-(2-(3-Chlorobenzyl)-5-methyloxazol-4-yl)phenoxy)methyl)-N,N,1-trimethyl-1H-pyrazole-5-carboxamide], the pIC50 is 6.30 to 7.30.

As for `CN[C@@H]1CCCN(C(=O)c2ccc(COc3ccc(-c4nc(Cc5cccc(Cl)c5)oc4C)cc3)nc2)C1` [Compound 41, (3R)-1-{6-[(4-{2-[(3-Chlorophenyl)methyl]-5-methyl-1,3-oxazol-4-yl}phenoxy)methyl]pyridine-3-carbonyl}-N-methylpiperidin-3-amine], the pIC50 was above 7.30.

Take `Cc1oc(Cc2cccc(Cl)c2)nc1-c1ccc(OCc2ncc(C(=O)N(C)C)cn2)cc1` [Compound 26, 2-[(4-{2-[(3-Chlorophenyl)methyl]-5-methyl-1,3-oxazol-4-yl}phenoxy)methyl]-N,N-dimethylpyrimidine-5-carboxamide]: the negative-log IC50 (pIC50) is above 7.30.

The compound `CC(=O)N1CCN(C(=O)c2cc3cc(OCc4ccccc4)ccc3[nH]2)C[C@@H]1C(=O)N[C@H]1C[C@@H](C)N(C#N)C1` [Compound 42] had a pIC50 of 6.30 to 7.30.

`C[C@@H]1C[C@@H](NC(=O)/C=C/c2cccc(-c3nc(Cc4cccc(Cl)c4)no3)c2)CN1C#N` [Compound 17, (2E)-3-(3-{3-[(3-Chlorophenyl)methyl]-1,2,4-oxadiazol-5-yl}phenyl)-N-[(3R,5R)-1-cyano-5-methylpyrrolidin-3-yl]prop-2-enamide] gave a pIC50 below 6.00.

`Cc1oc(Cc2cccc(Cl)c2)nc1-c1ccc(OCc2ccc(C(=O)N3CC4CCC(C3)N4)cn2)cc1` [Compound 29, (3,8-Diazabicyclo[3.2.1]octan-3-yl)(6-((4-(2-(3-chlorobenzyl)-5-methyloxazol-4-yl)phenoxy)methyl)pyridin-3-yl)methanone]: the pIC50 was above 7.30.

As to `Cc1oc(Cc2cccc(Cl)c2)nc1-c1ccc(OCc2ccc(C(=O)N(C)C)cc2)cc1` [Compound 22, 4-((4-(2-(3-Chlorobenzyl)-5-methyloxazol-4-yl)phenoxy)methyl)-N,N-dimethylbenzamide], the pIC50 was above 7.30.
